# Article PMC4257617, “Structures of trehalose synthase from Deinococcus radiodurans reveal that a closed conformation is involved in catalysis of the intramolecular isomerization” (Acta Crystallographica Section D: Biological Crystallography, 2014)
# What was measured:
# [1] = biological target: T1, DrTS (trehalose synthase) (Deinococcus radiodurans, UniProt I3NX86); assay: isomerase assay (trehalose from maltose), HPLC with refractive-index detection; type: biochemical
# T1 construct: full length, about 552 residues plus vector linkers (residues 1-5 disordered); pET-23a(+), Ni-NTA purified, E. coli BL21 (DE3); homodimer
# T1 sequence (I3NX86 1-552): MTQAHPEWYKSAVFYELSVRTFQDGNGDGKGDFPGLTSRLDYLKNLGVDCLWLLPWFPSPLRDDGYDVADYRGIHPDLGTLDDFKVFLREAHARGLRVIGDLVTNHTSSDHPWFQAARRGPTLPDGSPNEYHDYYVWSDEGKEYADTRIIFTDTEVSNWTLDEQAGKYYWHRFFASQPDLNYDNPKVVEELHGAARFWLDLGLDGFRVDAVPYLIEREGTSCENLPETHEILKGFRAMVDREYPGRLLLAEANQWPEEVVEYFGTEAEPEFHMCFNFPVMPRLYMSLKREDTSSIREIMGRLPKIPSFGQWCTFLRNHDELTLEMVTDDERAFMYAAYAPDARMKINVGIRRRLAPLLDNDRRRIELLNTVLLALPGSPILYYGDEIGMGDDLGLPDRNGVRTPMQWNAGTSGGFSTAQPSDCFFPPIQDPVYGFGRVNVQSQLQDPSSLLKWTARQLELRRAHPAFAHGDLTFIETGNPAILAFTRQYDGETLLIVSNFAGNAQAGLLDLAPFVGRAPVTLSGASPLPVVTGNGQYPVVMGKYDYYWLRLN
# [2] = biological target: Deinococcus radiodurans trehalose synthase, wild type (Deinococcus radiodurans); assay: AUC; sedimentation velocity, 293 K, 42 000 rev/min; enzyme 0.1 mg/ml in 20 mM Tris-HCl pH 7.5, 100 mM NaCl; c(s) distribution with SEDFIT
Molecule,IC50 [1],stoichiometry N [2]
NC(CO)(CO)CO [Tris],4.88 mM,–
"Deinococcus radiodurans trehalose synthase, wild type (enzyme)",–,2
